This is an account of results in article PMC8398231 (Pharmaceutics, 2021).

In general, logD refers to the decadic logarithm of the distribution of all forms, ionised or not, between an organic phase and buffer at a given pH. A low value points to a more hydrophilic compound.

Data set [1] is described as follows: Lipophilicity, water-octanol partition/distribution coefficient method. The format is physicochemical. The following applies: 1-octanol/phosphate buffered saline; shake-flask 1-octanol/PBS pH 7.4 (500 µL each), 3.7 MBq, stirred 5 min at room temperature, centrifuged, gamma counter, decay-corrected; three experiments in triplicate, mean ± SD. Here is the method:
The lipophilicity of the [^68Ga]Ga-RM2 was assessed by the water-octanol partition/distribution coefficient method. In a centrifuge tube 500 µL of 1-octanol was added to 500 µL of phosphate buffered saline (pH 7.4) containing the radiolabeled peptide (3.7 MBq; ≈10 µL). After equilibrium, the solution was vigorously stirred for 5 min at room temperature and subsequently centrifuged (4000 rpm, 3 min) to yield two immiscible layers. Aliquots of 100 µL were taken from each layer and the radioactivity in the samples was determined by a gamma counter (Gamma Wizard2 Counter 2480; Perkin Elmer, Villebon sur Yvette, France; acquisition time of one minute, energy window centered on the peak of 511 keV). The Log D7.4 was determined by the Log ratio (cpm (counts per minute) organic phase/cpm aqueous phase). The cpm values were decay-corrected. Experiments were performed three times in triplicates.

The nature of data set [2]: Stability of radiolabeled kit in vehicle (radiochemical purity over time). It is filed as physicochemical. As to conditions: final formulation (acetate buffer, PBS, 0.9% NaCl). As to the method: For process validation, the [^68Ga]Ga-RM2 kits were subjected to full quality control. […] Molar activity was calculated after linear regression of the calibration curve with [^natGa]Ga-RM2 (Life Molecular Imaging). The pH was determined using a pH-meter. Volumetric activity was determined by dividing activity obtained by the final volume. The [^68Ga]Ga-RM2 was also subjected to endotoxin testing (Charles Rivers), sterility testing and radionuclidic purity and filter integrity tests. Results were then compared to the production capacity provided by the module route currently running in our NCT03604757 and NCT03606837 studies.
After optimization, ^68Ga radiolabeling of the RM2 kits was carried out in three consecutive batches, and they all complied with the requirements of the monograph of the European Pharmacopoeia (as described for [^68Ga]Ga-edotreotide) (Figure 4 and Table 1). The evolution of the radiochemical purity over time was also checked.

Another data set deals with PC-3. As to conditions: other kit formulation without scavenger and bulking agent; cited from earlier work. From the text:
Another kit formulation of RM2 has been developed but without a scavenger and a bulking agent for lyophilization. […] Therefore, our innovative formulation provides longer stability at higher temperature and higher uptake in GRP-R-expressing PC-3 cells.

The subject of a further data set is PC-3 cells. Put plainly: Cellular efflux of internalized radioactivity from PC-3 cells. It is filed as cell-based. Here is the method: For in vitro experiments, PC-3 cells were cultured in DMEM/F12 and seeded in 6-well plates at a density of 10^6 cells per well 18 h before carrying out the experiments and incubated overnight with complete medium.
Three minutes before the end of the incubation time, internalization was stopped by removing medium and washing cells with ice-cold PBS. The membrane-bound fraction was removed by rinsing cells with 2 mL acetate buffer (pH = 5; 20 mM) for 2 min and cells were then rinsed ice-cold PBS. Next, 2 mL of complete medium was then added to each well, and PC-3 cells were incubated at 37 °C for 5, 15, 30 and 45 min. At each time point, efflux was stopped by removing medium and cells were rinsed twice with ice-cold PBS. Finally, the cells were treated with 1M NaOH and the radioactivity was measured using a gamma counter.

The target in the next data set is T1, GRP-R (Homo sapiens, UniProt P30550).
T1 construct: higher uptake in GRP-R-expressing PC-3 cells; endogenous in cells; host or cells: PC-3 cells
The experiment in a line: Intracellular calcium mobilization assay in PC-3 cells. The format is cell-based. As to conditions: fluo-8AM, 10^-11 M to 10^-5 M, room temperature, pH 7.4. (In general: Calcium flux is commonly read through the fluorescence of an indicator in the cells.)

T1 sequence (P30550 whole entry): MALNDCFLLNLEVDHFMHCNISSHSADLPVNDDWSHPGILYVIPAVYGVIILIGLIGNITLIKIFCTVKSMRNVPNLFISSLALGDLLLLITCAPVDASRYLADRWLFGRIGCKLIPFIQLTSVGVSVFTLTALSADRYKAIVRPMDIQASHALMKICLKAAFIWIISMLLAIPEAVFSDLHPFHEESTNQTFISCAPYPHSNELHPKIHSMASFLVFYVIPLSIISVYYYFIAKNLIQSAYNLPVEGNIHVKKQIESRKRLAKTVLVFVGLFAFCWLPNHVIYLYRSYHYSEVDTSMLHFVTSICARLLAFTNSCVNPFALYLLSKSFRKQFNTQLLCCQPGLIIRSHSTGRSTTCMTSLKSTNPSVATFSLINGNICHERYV
Protocol for GRP-R: For calcium imaging assays, PC-3 cells were cultured as previously described. The day before the experimentation, cells were grown on 15 mm Thermanox® glass slides (Thermofischer, Waltham, MA, USA,) in 6-wells plates at the density of 5.10^5 cells in 500 µL culture medium. Glass slides were individually loaded for 30 min in dark into 500 µL loading solution containing 10 µL fluo-8AM, 10 µL pluronic acid, 50 µL probenecid and 430 µL DMEM/F12 medium. […] A 10-min delay was applied to remove extracellular fluo-8AM and to enable fluo-8AM intracellular hydrolysis. Growing concentrations (10^−11 M to 10^−5 M) of [^natGa]Ga-RM2 were added via a rapid perfusion system.

`CC(C)C[C@H](NC(=O)C[C@H](O)[C@H](CC(C)C)NC(=O)[C@H](Cc1c[nH]cn1)NC(=O)CNC(=O)[C@@H](NC(=O)[C@H](C)NC(=O)[C@H](Cc1c[nH]c2ccccc12)NC(=O)[C@H](CCC(N)=O)NC(=O)[C@@H](Cc1ccccc1)NC(=O)CN1CCC(NC(=O)CN2CCN(CC(=O)O)CCN(CC(=O)O)CCN(CC(=O)O)CC2)CC1)C(C)C)C(N)=O` [[^68Ga]Ga-RM2, metal not drawn]: in data set [1], the log distribution coefficient (logD) is -2.54 ± 0.04. The “Stability in vehicle (radiochemical purity over time)” value in data set [2] is “stable in vehicle up to 3 h”. The “Specific uptake in PC-3 (% of cell-associated radioactivity)” value in the data set on PC-3 is recorded as 5%. Further, the “Efflux of the internalized activity” value in the data set with PC-3 cells (30 min internalization at 37 °C, acid wash, then 5 min at 37 °C in complete medium) came out at 64.3 ± 6.5%. Further, the “Efflux (%)” value in the data set with PC-3 cells (45 min post-internalization at 37 °C) turned out to be 70.8 ± 11.1%.
Consider bombesin, for which, on GRP-R, the “Intracellular calcium mobilization (ΔF/F)” value was “effectively induced calcium mobilization in a dose-dependent manner”.
